According to PubChem BioAssay AID1648 (Sanford-Burnham Center for Chemical Genomics, 2009):
Calls of active or inactive are those of the source. The rule behind the calls is not given here.

Target: Serine/threonine-protein kinase mTOR (Homo sapiens) (UniProt P42345)
Assay: binders of mTOR FRB domain, biophysical, NMR (AID 1648)
Conditions: NMR binding to FRB domain, chemical shift

Chain of Serine/threonine-protein kinase mTOR (Homo sapiens) (P42345 2015-2114): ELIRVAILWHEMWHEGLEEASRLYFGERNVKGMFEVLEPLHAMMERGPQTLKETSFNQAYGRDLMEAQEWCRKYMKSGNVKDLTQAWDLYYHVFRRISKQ

| SMILES | Kd |
| --- | --- |
| O=[N+]([O-])c1ccc2c(c1)N([O-])C1(CCCCC1)[N+]2=O | > 4 mM (inactive) |
| CC1(C)C=CC(=O)[C@@]2(C)C1CC(=O)[C@]1(C)C2CC[C@@]2(C)[C@H](c3ccoc3)OC(=O)C3OC321 (stereo partly drawn) | > 4 mM (inactive) |
| Clc1ncc2[nH]cnc2n1 | > 4 mM (inactive) |
| O=C1c2ccc(F)cc2C(=O)N1CO | > 4 mM (inactive) |
| CC(C)NC1CS(=O)(=O)CC1O (stereo not drawn) | > 4 mM (inactive) |
| O=C(O)c1ccc(-n2cncn2)cc1 | > 4 mM (inactive) |
| OCc1ccccc1O[C@@H]1O[C@H](CO)[C@@H](O)[C@H](O)[C@H]1O | > 4 mM (inactive) |
| CC(=O)N1CC2(C)CN(C(C)=O)CC(C)(C1)C2O (stereo not drawn) | > 4 mM (inactive) |
| Fc1ccc(N2CCNCC2)cc1 | > 4 mM (inactive) |
| NS(=O)(=O)c1ccc(NC(=S)NC2CC2)cc1 | > 4 mM (inactive) |
| NC(=O)Cn1nc2c3c(cccc3c1=O)-c1ccccc1-2 | > 4 mM (inactive) |
| COc1cccc(/C=C2/SC(N)=NC2=O)c1 | > 4 mM (inactive) |
| Cc1nnc2ccc(N3CCCC3)nn12 | > 4 mM (inactive) |
| Cc1nnc2sc(-c3csc4c3CCCC4)nn12 | > 4 mM (inactive) |
| CN(c1ccc(C(=O)N2CCCCC2)cc1)S(C)(=O)=O | > 4 mM (inactive) |
| COc1cc2ccc(=O)oc2c(OC)c1OC | > 4 mM (inactive) |
| COc1ccc([C@@H]2CC(=O)c3c(O)cc(O[C@@H]4O[C@H](CO[C@H]5O[C@@H](C)[C@H](O)[C@@H](O)[C@H]5O)[C@@H](O)[C@H](O)[C@H]4O)cc3O2)cc1O | > 4 mM (inactive) |
| CC(=O)O[C@@H]1CC2C(C)(C)CCC(=O)[C@]2(C)C2CC[C@@]3(C)[C@H](c4ccoc4)OC(=O)C4OC43[C@@]21C (stereo partly drawn) | > 4 mM (inactive) |
| Cn1cc(C(=O)N/N=C/c2ccccc2)ccc1=O | > 4 mM (inactive) |
| Cc1ccsc1/C=c1\sc2ncnn2c1=O | > 4 mM (inactive) |
| CNC(=O)n1ccc(C(=O)N2CCCCC2)n1 | > 4 mM (inactive) |
| O=C(c1ccncc1)N1CCN(C(=O)c2ccncc2)CC1 | > 4 mM (inactive) |
| O=C(/C=C/c1ccccc1)NC1CCS(=O)(=O)C1 (stereo not drawn) | > 4 mM (inactive) |
| O=C(c1cc2ccccc2o1)c1nc2c(n1O)CCCCC2 | > 4 mM (inactive) |

| SMILES | Kd |
| --- | --- |
| CC1SC(=NC(=O)c2ccco2)NC1=O (stereo not drawn) | > 4 mM (inactive) |
| COc1cc(/C=C/C(=O)/C=C(O)/C=C/c2ccc(O)c(OC)c2)ccc1O | > 4 mM (inactive) |
| CN(C)C(=O)CCNS(=O)(=O)c1ccccc1 | > 4 mM (inactive) |
| Cc1nn2c(-c3ccco3)nnc2c2ccccc12 | > 4 mM (inactive) |
| Cc1cc(C(=O)NC(C)c2ccncc2)no1 (stereo not drawn) | > 4 mM (inactive) |
| NC(=O)NC(=O)Nc1ccc(Cl)cc1 | > 4 mM (inactive) |
| CNC(=O)c1cc2cccc(OC)c2oc1=O | > 4 mM (inactive) |
| CC1=CC2C(CC1=O)C(C)=CCC2C(C)C (stereo not drawn) | > 4 mM (inactive) |
| CNc1nc(OC)nc(N2CCOCC2)n1 | > 4 mM (inactive) |
| Cc1n[nH]c(=O)nc1N1CCN(c2ccccc2)CC1 | > 4 mM (inactive) |
| O=C(O)c1csc2ccccc12 | > 4 mM (inactive) |
| CC(O)c1nc2ccccc2[nH]1 (stereo not drawn) | > 4 mM (inactive) |
| Cn1cc(Cl)c(C(=O)NC2CCCCCC2)n1 | > 4 mM (inactive) |
| Cc1nc(-c2cc(CO)no2)cs1 | > 4 mM (inactive) |
| c1ccc2c(c1)[nH]c1cnccc12 | > 4 mM (inactive) |
| COc1c2ccoc2cc2oc(C)cc(=O)c12 | > 4 mM (inactive) |
| COC(=O)c1nc(-c2ccccc2)oc1N(C)C | > 4 mM (inactive) |
| CC(=O)Oc1ccc2c(c1C(C)C)CCC1C(C)(C)CCC[C@]21C (stereo partly drawn) | > 4 mM (inactive) |
| CN1CCN(Cc2cccnc2)CC1 | > 4 mM (inactive) |
| O=C(O)c1cccc2c1OCCCO2 | > 4 mM (inactive) |
| O=C(Nn1cnnc1)c1cc2c(s1)CCCC2 | > 4 mM (inactive) |
| NC(=O)Cn1cnc2c(cnn2-c2ccccc2)c1=O | > 4 mM (inactive) |
| C(=C\c1ccccc1)/C=N/n1cnnc1 | > 4 mM (inactive) |
| CC(C)(C)Cc1nc(-c2ccccn2)no1 | > 4 mM (inactive) |

| SMILES | Kd |
| --- | --- |
| O=C1CCC(=O)N1c1ccc(O)cc1 | > 4 mM (inactive) |
| NC(=O)CSc1ccc2nnc(-c3cccs3)n2n1 | > 4 mM (inactive) |
| O=[N+]([O-])c1cccc(-c2c[n+](=O)c3c(n2[O-])CCC3)c1 | > 4 mM (inactive) |
| NC(=O)CSc1ccc(-c2ccccc2)nn1 | > 4 mM (inactive) |
| NCc1ccc(-c2ccccn2)s1 | > 4 mM (inactive) |
| Oc1ccc(C2SCCS2)cc1 | > 4 mM (inactive) |
| CC1(C)C(=O)C=C[C@@]2(C)C1CC(=O)[C@]1(C)C2CC[C@@]2(C)[C@H](c3ccoc3)OC(=O)[C@H]3O[C@]321 (stereo partly drawn) | > 4 mM (inactive) |
| O=C(CSc1ccc(Cl)cc1)N1CCOCC1 | > 4 mM (inactive) |
| CC[C@@H]1[C@@H](O)N2C3C[C@H]1C1C(O)[C@]4(C[C@@H]12)c1ccccc1N(C)[C@@H]34 (stereo partly drawn) | > 4 mM (inactive) |
| CN1CCCC1C(=O)O (stereo not drawn) | > 4 mM (inactive) |
| O=C(O)Cc1n[nH]c(=O)c2ccccc12 | > 4 mM (inactive) |
| O=S(=O)(O)c1nc2ccccc2[nH]1 | > 4 mM (inactive) |
| OC1CC(c2ccccc2)NC2(CCCC2)C1 (stereo not drawn) | > 4 mM (inactive) |
| CC[C@@]1(O)C[C@H](O[C@H]2C[C@H](N(C)C)[C@H](O)[C@H](C)O2)c2c(cc3c(c2O)C(=O)c2c(O)cccc2C3=O)[C@H]1C(=O)OC | > 4 mM (inactive) |
| OCc1ccc(-n2cncn2)cc1 | > 4 mM (inactive) |
| COc1cc(S(=O)(=O)N(C)C)ccc1F | > 4 mM (inactive) |
| O=C(O)c1csc(-c2ccccc2)n1 | > 4 mM (inactive) |
| O=C(N1CCOCC1)N1CCN(c2ccccn2)CC1 | > 4 mM (inactive) |
| O=C(c1ccco1)N1CCN(c2ccc(Cl)cc2)CC1 | > 4 mM (inactive) |
| O=C(Nc1cccc(C(F)(F)F)c1)c1cccnc1 | > 4 mM (inactive) |
| COc1cc2c(cc1OC)[C@@H]1C(=O)c3ccc4c(c3O[C@@H]1CO2)CC(C(C)C)O4 (stereo partly drawn) | > 4 mM (inactive) |
| N#C/C(=C\c1ccc[nH]1)S(=O)(=O)c1ccccc1 | > 4 mM (inactive) |
| Cc1ccc(-c2nn(C)c(=O)c3ccccc23)cc1CO | > 4 mM (inactive) |
| CC1CCC2(OC1)OC1CC3C4CC[C@H]5C[C@@H](O)CC[C@]5(C)C4CC(=O)[C@]3(C)C1C2C (stereo partly drawn) | > 4 mM (inactive) |

| SMILES | Kd |
| --- | --- |
| CC(=O)C1CC[C@H]2C3CC[C@H]4C[C@H](O)CC[C@]4(C)C3CC[C@]12C (stereo partly drawn) | > 4 mM (inactive) |
| COC(=O)CCSCC(=O)Nc1nccs1 | > 4 mM (inactive) |
| O=C(O)Cn1cc(C(F)(F)F)ccc1=O | > 4 mM (inactive) |
| COc1cc(C2NC(=S)NC(C)=C2C(C)=O)ccc1O (stereo not drawn) | > 4 mM (inactive) |
| CC(=O)Nc1cnn(-c2ccccc2)c(=O)c1Cl | > 4 mM (inactive) |
| O=C1CCN(c2ccccc2)N1 | > 4 mM (inactive) |
| O=C(O)Cn1nnnc1-c1ccc(F)cc1 | > 4 mM (inactive) |
| Nc1ccc2c(c1)S(=O)(=O)C=C2 | > 4 mM (inactive) |
| COc1cnn(Cc2ccccc2)c(=O)c1Cl | > 4 mM (inactive) |
| OCc1ccc2c(c1)OCO2 | > 4 mM (inactive) |
| O=S1(=O)C=C(Nc2ccccc2)CC1 | > 4 mM (inactive) |
| NC(=O)c1ccc(NC(=O)c2cccnc2)cc1 | > 4 mM (inactive) |
| CCCn1c(S(=O)(=O)O)nc2ccccc21 | > 4 mM (inactive) |
| Clc1ccc(SCCn2cncn2)cc1 | > 4 mM (inactive) |
| COc1cc(C)c(S(=O)(=O)N2CCN(C)CC2)cc1C | > 4 mM (inactive) |
| O=S1(=O)CCC(NCc2ccccc2)C1 (stereo not drawn) | > 4 mM (inactive) |
| COc1ccc(C(C)=O)c(O)c1 | > 4 mM (inactive) |
| NC(=O)C1CCN(CC2CC=CCC2)CC1 (stereo not drawn) | > 4 mM (inactive) |
| O=C(/C=C(\O)c1ccccc1)c1ccccc1O | > 4 mM (inactive) |
| CN(C(N)=O)C1(C)CCS(=O)(=O)C1 (stereo not drawn) | > 4 mM (inactive) |
| COC(=O)Nc1nc2c(s1)CCCC2 | > 4 mM (inactive) |
| CNS(=O)(=O)c1ccc2[nH]c(=O)[nH]c2c1 | > 4 mM (inactive) |
| C[C@@H]1CC[C@@]23CCC4(C)[C@@](C=CC5[C@@]6(C)CCC(=O)C(C)(C)C6CC[C@]54C)(OC2=O)C3[C@H]1C (stereo partly drawn) | > 4 mM (inactive) |
| NC(=O)C1CCN(C(=O)CN2CCc3ccccc32)CC1 | > 4 mM (inactive) |

| SMILES | Kd |
| --- | --- |
| Nc1ccc(-c2csnn2)cc1 | > 4 mM (inactive) |
| Nc1nc2ccccc2n1CCN1CCCC1 | > 4 mM (inactive) |
| CC1(C)CC2(CCO1)NCCN1C(=O)CSC12 (stereo not drawn) | > 4 mM (inactive) |
| COc1ccc(/C=C/c2cc(O)cc(O)c2)cc1 | > 4 mM (inactive) |
| Cc1nnc(C)n1/N=C/c1cccs1 | > 4 mM (inactive) |
| Cc1nc(NC2=NCCC(=O)N2)nc2ccccc12 | > 4 mM (inactive) |
| CCCCn1c(S(=O)(=O)O)nc2ccccc21 | > 4 mM (inactive) |
| CS(=O)(=O)N/N=C/c1cccs1 | > 4 mM (inactive) |
| COC(=O)c1cccc(C(F)(F)F)c1 | > 4 mM (inactive) |
| CN(C)N1C(=O)C2C3C=CC(O3)C2C1=O (stereo not drawn) | > 4 mM (inactive) |
| O=C1CSC2=NCCCN12 | > 4 mM (inactive) |
| O=C(O)CCC(=O)c1c[nH]c2ccccc12 | > 4 mM (inactive) |
| Cn1nc(C(=O)NC2CCCCC2)c2ccccc2c1=O | > 4 mM (inactive) |
| COC(=O)Nc1nc2c(C)cccc2s1 | > 4 mM (inactive) |
| C[C@]12C=CC(=O)C=C1CCC1C2CC[C@]2(C)C(=O)CCC12 (stereo partly drawn) | > 4 mM (inactive) |
| COC(=O)c1c[nH]c2ccccc12 | > 4 mM (inactive) |
| Cc1cc(C)nc(/N=C(/N)N2CCOCC2)n1 | > 4 mM (inactive) |
| Cn1c(-c2ccccc2F)n[nH]c1=S | > 4 mM (inactive) |
| CCOC(=O)C1CN(C)CCN1C (stereo not drawn) | > 4 mM (inactive) |
| COC(=O)Nc1nnc(-c2ccncc2)s1 | > 4 mM (inactive) |
| Fc1ccc(CN2CCCNCC2)cc1 | > 4 mM (inactive) |
| Cc1cc(NC(=O)NCCCSc2nncn2C)no1 | > 4 mM (inactive) |
